In ChEMBL document CHEMBL1201862, “PubChem BioAssay data set” (2004):
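Values below derive from 48-hour exposures of cells grown in 96-well plates, with endpoints linearly interpolated between the two concentrations bracketing the appropriate inhibition level. At the GI50, growth is halved.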 Active and inactive are the calls of the source. No stated cut-off is given here; in the data, active = GI50 up to about 1.1 µM and inactive = higher.

How the values were obtained:
Assay in all cases: NCI anticancer screen, dose series, 48 h
EKVX = tested on: EKVX
NCI-H23 = tested on: NCI-H23
OVCAR-3 = tested on: OVCAR-3
MDA-N = tested on: MDA-N
NCI-H226 = tested on: NCI-H226
HOP-62 = tested on: HOP-62
OVCAR-4 = tested on: OVCAR-4
SNB-19 = tested on: SNB-19
PC-3 = tested on: PC-3
OVCAR-5 = tested on: OVCAR-5
SN12C = tested on: SN12C
MDA-MB-435 = tested on: MDA-MB-435
SF-268 = tested on: SF-268
HCC 2998 = tested on: HCC 2998
HCT-15 = tested on: HCT-15
ACHN = tested on: ACHN
SF-539 = tested on: SF-539
UACC-257 = tested on: UACC-257
CAKI-1 = tested on: CAKI-1
SNB-75 = tested on: SNB-75

Structure (SMILES)	GI50 (EKVX)	GI50 (NCI-H23)	GI50 (OVCAR-3)	GI50 (MDA-N)	GI50 (NCI-H226)	GI50 (HOP-62)	GI50 (OVCAR-4)	GI50 (SNB-19)	GI50 (PC-3)	GI50 (OVCAR-5)	GI50 (SN12C)	GI50 (MDA-MB-435)	GI50 (SF-268)	GI50 (HCC 2998)	GI50 (HCT-15) [µM]	GI50 (ACHN)	GI50 (SF-539)	GI50 (UACC-257)	GI50 (CAKI-1)	GI50 (SNB-75)
c1ccc2c(c1)c1c3n2-c2cc(on2)C3CCC1 (stereo not given)	> 100 µM (inactive)	> 100 µM (inactive)	> 100 µM (inactive)	> 100 µM (inactive)	> 100 µM (inactive)	> 100 µM (inactive)	> 100 µM (inactive)	> 100 µM (inactive)	> 100 µM (inactive)	> 100 µM (inactive)	> 100 µM (inactive)	> 100 µM (inactive)	> 100 µM (inactive)	> 100 µM (inactive)	> 100	> 100 µM (inactive)	> 100 µM (inactive)	> 100 µM (inactive)	> 100 µM (inactive)	> 100 µM (inactive)
CC1(C)CCCC2OC2CCC(C)(C)C1=O (stereo not given)	> 100 µM (inactive)	> 100 µM (inactive)	> 100 µM (inactive)	> 100 µM (inactive)	> 100 µM (inactive)	> 100 µM (inactive)	> 100 µM (inactive)	> 100 µM (inactive)	> 100 µM (inactive)	> 100 µM (inactive)	> 100 µM (inactive)	> 100 µM (inactive)	> 100 µM (inactive)	> 100 µM (inactive)	> 100	> 100 µM (inactive)	> 100 µM (inactive)	> 100 µM (inactive)	> 100 µM (inactive)	> 100 µM (inactive)
c1ccc(CCCN2C3CCC2CN(CCOC(c2ccccc2)c2ccccc2)C3)cc1	7.46 µM (inactive)	11.1 µM (inactive)	13.2 µM (inactive)	13.2 µM (inactive)	11.3 µM (inactive)	13.5 µM (inactive)	10.2 µM (inactive)	14.6 µM (inactive)	6.43 µM (inactive)	12.7 µM (inactive)	12.1 µM (inactive)	12.4 µM (inactive)	14 µM (inactive)	5.21 µM (inactive)	4.72	13.4 µM (inactive)	8.39 µM (inactive)	8.49 µM (inactive)	11.3 µM (inactive)	5.41 µM (inactive)
c1ccc(CC(Nc2cccnc2)c2ccccc2)cc1 (stereo not given)	24.2 µM (inactive)	26.7 µM (inactive)	16.4 µM (inactive)	20.1 µM (inactive)	24.2 µM (inactive)	24.5 µM (inactive)	25.7 µM (inactive)	30.8 µM (inactive)	24.8 µM (inactive)	33.3 µM (inactive)	20.6 µM (inactive)	22.9 µM (inactive)	40.6 µM (inactive)	21.2 µM (inactive)	30.3	37.7 µM (inactive)	20.6 µM (inactive)	22 µM (inactive)	32.4 µM (inactive)	24.9 µM (inactive)
COC(=O)C(=O)C(C(=O)C(=O)Nc1ccc(C)cc1C)c1nc2ccc(Cl)cc2nc1O (stereo not given)	34.6 µM (inactive)	> 100 µM (inactive)	> 100 µM (inactive)	> 100 µM (inactive)	> 100 µM (inactive)	> 100 µM (inactive)	> 100 µM (inactive)	> 100 µM (inactive)	> 100 µM (inactive)	> 100 µM (inactive)	> 100 µM (inactive)	> 100 µM (inactive)	> 100 µM (inactive)	> 100 µM (inactive)	> 100	> 100 µM (inactive)	> 100 µM (inactive)	> 100 µM (inactive)	> 100 µM (inactive)	> 100 µM (inactive)
CC1CC(Nc2ccc(Br)cc2)N(C(=O)c2ccc(Br)cc2)O1 (stereo not given)	> 10 µM (inactive)	> 10 µM (inactive)	> 10 µM (inactive)	8.93 µM (inactive)	> 10 µM (inactive)	6.49 µM (inactive)	> 10 µM (inactive)	> 10 µM (inactive)	2.23 µM (inactive)	6.37 µM (inactive)	2.75 µM (inactive)	1.09 µM (active)	1.25 µM (inactive)	> 10 µM (inactive)	0.526	0.678 µM (active)	3.52 µM (inactive)	4.46 µM (inactive)	4.61 µM (inactive)	8.28 µM (inactive)
CC1CCC2(C(=O)O)CCC3(C)C(=CCC4C5(C)CC(O)C(O)C(C)(CO)C5C(O)CC43C)C2C1C (stereo not given)	> 89.3 µM (inactive)	65.8 µM (inactive)	24.1 µM (inactive)	11.1 µM (inactive)	> 79.6 µM (inactive)	45.4 µM (inactive)	> 100 µM (inactive)	22.7 µM (inactive)	83.6 µM (inactive)	> 100 µM (inactive)	2.12 µM (inactive)	45.6 µM (inactive)	28.5 µM (inactive)	35.9 µM (inactive)	> 100	> 100 µM (inactive)	39 µM (inactive)	98.4 µM (inactive)	> 100 µM (inactive)	28.1 µM (inactive)
CCOC(=O)C1(Cc2ccccc2)CCN(C(=O)c2ccccc2)C2C1C2(Cl)Cl (stereo not given)	19.3 µM (inactive)	23.5 µM (inactive)	18.3 µM (inactive)	17.9 µM (inactive)	23.6 µM (inactive)	27.6 µM (inactive)	26 µM (inactive)	36.1 µM (inactive)	16.7 µM (inactive)	29.9 µM (inactive)	16.4 µM (inactive)	21.1 µM (inactive)	29 µM (inactive)	14.5 µM (inactive)	27.8	21.6 µM (inactive)	18 µM (inactive)	15.2 µM (inactive)	24.3 µM (inactive)	23.1 µM (inactive)
CN(CCC(=O)N1CC(CCl)c2ccc([N+](=O)[O-])cc21)CCC(=O)N1CC(CCl)c2ccc([N+](=O)[O-])cc21 (stereo not given)	12.7 µM (inactive)	14.7 µM (inactive)	11.5 µM (inactive)	15 µM (inactive)	6.95 µM (inactive)	33.7 µM (inactive)	42.7 µM (inactive)	> 100 µM (inactive)	6.52 µM (inactive)	> 100 µM (inactive)	19 µM (inactive)	13.9 µM (inactive)	12.1 µM (inactive)	5.79 µM (inactive)	13.2	0.074 µM (active)	14.6 µM (inactive)	9.2 µM (inactive)	18.7 µM (inactive)	2.56 µM (inactive)
c1ccc(CN2COc3c(ccc4c5c(ccc34)CN(Cc3ccccc3)CO5)C2)cc1	> 100 µM (inactive)	> 100 µM (inactive)	> 100 µM (inactive)	> 100 µM (inactive)	> 76.6 µM (inactive)	> 100 µM (inactive)	> 100 µM (inactive)	> 100 µM (inactive)	> 100 µM (inactive)	> 100 µM (inactive)	> 100 µM (inactive)	> 100 µM (inactive)	> 100 µM (inactive)	> 100 µM (inactive)	> 100	> 100 µM (inactive)	> 100 µM (inactive)	> 100 µM (inactive)	> 100 µM (inactive)	> 100 µM (inactive)
